Converted amounts (≈) assume the structure as drawn.
Key:
physchem [1] = settings: octan-1-ol/water
physchem [2] = settings: pH 7.4 buffer

SMILES: Cn1c(=O)c(Oc2ccc(F)cc2F)cc2cnc(NC3CCOCC3)nc21 [R-1487]
- logD (physchem [1]; pH 7.4, LogD7.4): 2.76
- solubility thermodynamic (physchem [2]): 20.4 µM (≈ 7.92 µg/mL)

SMILES: COc1cc(N2CCN(C(C)=O)CC2)ccc1Nc1ncc(Cl)c(-c2cnc3c(N)cccn23)n1
- logD (physchem [1]; pH 7.4, LogD7.4): 3.4
- solubility thermodynamic (physchem [2]): 0.9 µM (≈ 0.444 µg/mL)

SMILES: Cc1ccc(NC(=O)c2ccnc(N3CCOCC3)c2)cc1Nc1ccnc(OCC(C)(C)CN(C)C)n1
- logD (physchem [1]; pH 7.4, LogD7.4): 2.2
- solubility thermodynamic (physchem [2]): 490 µM (≈ 255 µg/mL)

SMILES: O=C(O)c1ccccc1Cn1nnc(-c2cccc(OCc3ccc4ccccc4n3)c2)n1
- logD (physchem [1]; pH 7.4, LogD7.4): 2.1
- solubility thermodynamic (physchem [2]): 7.8 µM (≈ 3.41 µg/mL)

SMILES: CS(=O)(=O)c1cccc(Nc2nccc(Nc3cccc4[nH]ncc34)n2)c1
- logD (physchem [1]; pH 7.4, LogD7.4): 2.91
- solubility thermodynamic (physchem [2]): 6.8 µM (≈ 2.59 µg/mL)

SMILES: COC(=O)C1=C(C)NC(C)=C(C(=O)OCC(C)C)C1c1ccccc1[N+](=O)[O-] (centres undefined) [NISOLDIPINE]
- logD (physchem [1]; pH 7.4, LogD7.4): 3.59
- solubility thermodynamic (physchem [2]): 2.2 µM (≈ 0.855 µg/mL)

SMILES: Cn1sc(NCc2ccccc2)nc1=O
- logD (physchem [1]; pH 7.4, LogD7.4): 1.2
- solubility thermodynamic (physchem [2]): 1510 µM (≈ 335 µg/mL)

SMILES: Cc1ccc(NC(=O)N2CCN(C[C@@H]3CCCN(C4CC4)C3)CC2)cc1Cl
- logD (physchem [1]; pH 7.4, LogD7.4): 3.37
- solubility thermodynamic (physchem [2]): 575 µM (≈ 225 µg/mL)

SMILES: Cc1ncc(-c2nc(Nc3ccc(C(=O)N4CCN(C)CC4)cc3)ncc2F)n1C(C)C
- logD (physchem [1]; pH 7.4, LogD7.4): 2.49
- solubility thermodynamic (physchem [2]): 57.5 µM (≈ 25.2 µg/mL)

SMILES: CCS(=O)(=O)c1ccc(Oc2cc3nc(-c4ccccn4)[nH]c3cc2CN2C(=O)CCC2=O)cc1
- logD (physchem [1]; pH 7.4, LogD7.4): 2
- solubility thermodynamic (physchem [2]): 30.2 µM (≈ 14.8 µg/mL)

SMILES: O=C(Nc1cccc(O)c1)c1ccc(OCCCN2CCCC2)cc1OCc1ccccc1
- logD (physchem [1]; pH 7.4, LogD7.4): 3.07
- solubility thermodynamic (physchem [2]): 6.6 µM (≈ 2.95 µg/mL)

SMILES: CC(C)C(=O)Nc1ccc([N+](=O)[O-])c(C(F)(F)F)c1 [FLUTAMIDE]
- logD (physchem [1]; pH 7.4): 3.46
- solubility thermodynamic (physchem [2]): 89.1 µM (≈ 24.6 µg/mL)

SMILES: Cn1c(=O)c2[nH]c(-c3cccnc3)nc2n(C)c1=O
- logD (physchem [1]; pH 7.4, LogD7.4): 0.7
- solubility thermodynamic (physchem [2]): 219 µM (≈ 56.3 µg/mL)

SMILES: COc1ccc(-c2c(-c3ccc(O)cc3O)n[nH]c2C)cc1
- logD (physchem [1]; pH 7.4, LogD7.4): 3.37
- solubility thermodynamic (physchem [2]): 209 µM (≈ 61.9 µg/mL)

SMILES: Cc1ncc(-c2ccnc(Nc3ccc(N(C)C)cc3)n2)n1C(C)C
- logD (physchem [1]; pH 7.4, LogD7.4): 3.51
- solubility thermodynamic (physchem [2]): 100 µM (≈ 33.6 µg/mL)

SMILES: Clc1ccc2c(c1Nc1ccnc(Nc3cc(N4CCOCC4)cc(N4CCOCC4)c3)n1)OCO2
- logD (physchem [1]; pH 7.4, LogD7.4): 3.25
- solubility thermodynamic (physchem [2]): 30.9 µM (≈ 15.8 µg/mL)

SMILES: CCCS(=O)(=O)c1ccc(Nc2nccc(-c3cnc(C)n3C(C)C)n2)cc1
- logD (physchem [1]; pH 7.4, LogD7.4): 3.37
- solubility thermodynamic (physchem [2]): 138 µM (≈ 55.1 µg/mL)

SMILES: O=C(CO)N1CCC[C@H]1COc1cccc2ncnc(Nc3ccc(OCc4ccccn4)c(Cl)c3)c12
- logD (physchem [1]; pH 7.4, LogD7.4): 3.62
- solubility thermodynamic (physchem [2]): 1.9 µM (≈ 0.988 µg/mL)

SMILES: COCC(=O)N1CCC(n2cc(-c3cnc(N)c(-c4nc5ccccc5o4)c3)cn2)CC1
- logD (physchem [1]; pH 7.4, LogD7.4): 3.4
- solubility thermodynamic (physchem [2]): 1.9 µM (≈ 0.822 µg/mL)

SMILES: CC(C)COc1cc(OC(C)C)cc(C(=O)Nc2ccc(C(=O)O)cn2)c1
- logD (physchem [1]; pH 7.4, LogD7.4): 1.6
- solubility thermodynamic (physchem [2]): 190 µM (≈ 70.9 µg/mL)

SMILES: Cc1cccc(NS(=O)(=O)c2cccc3nonc23)c1
- logD (physchem [1]; pH 7.4, LogD7.4): 3
- solubility thermodynamic (physchem [2]): 81.3 µM (≈ 23.5 µg/mL)

SMILES: COc1cccc2c(O)cc(-c3ccccc3)nc12
- logD (physchem [1]; pH 7.4, LogD7.4): 2.3
- solubility thermodynamic (physchem [2]): 224 µM (≈ 56.3 µg/mL)

SMILES: O=C(NC1CCCS(=O)(=O)C1)c1ccc(Oc2ccc(C#C[C@]3(O)CN4CCC3CC4)cc2)cc1 (some centres undefined)
- logD (physchem [1]; pH 7.4): 1.4
- solubility thermodynamic (physchem [2]): 162 µM (≈ 80.2 µg/mL)

SMILES: O=C(Nc1ccc(N2CCOCC2)nc1)c1nnc(Nc2ccccc2)o1
- logD (physchem [1]; pH 7.4, LogD7.4): 2.9
- solubility thermodynamic (physchem [2]): 1.9 µM (≈ 0.696 µg/mL)

SMILES: Cc1ccc(Oc2ccc(Nc3ncnc4cccc(O[C@H](C)C(=O)N(C)CCO)c34)cc2C)cn1
- logD (physchem [1]; pH 7.4, LogD7.4): 3.85
- solubility thermodynamic (physchem [2]): 63.1 µM (≈ 30.8 µg/mL)

SMILES: CCc1cccc2c(C#N)cn(CC(=O)NCCOC)c12
- logD (physchem [1]; pH 7.4, LogD7.4): 1.95
- solubility thermodynamic (physchem [2]): 37.2 µM (≈ 10.6 µg/mL)

SMILES: Cc1nc(C)c(-c2ccc(C34CCC(CC(=O)O)(CC3)CC4)cc2)nc1C(N)=O
- logD (physchem [1]; pH 7.4, LogD7.4): 1.6
- solubility thermodynamic (physchem [2]): 112 µM (≈ 44.1 µg/mL)

SMILES: Cc1ccc(CO)cc1N(C)c1ccnc(Nc2cc(N3CCCC3)cc(N3CCOCC3)c2)n1
- logD (physchem [1]; pH 7.4, LogD7.4): 3.8
- solubility thermodynamic (physchem [2]): 11.5 µM (≈ 5.46 µg/mL)

SMILES: O=C(CN1CCOCC1)Nc1ccc(-c2cccc3c(=O)cc(N4CCOCC4)oc23)cc1OCC1CC1
- logD (physchem [1]; pH 7.4, LogD7.4): 3.3
- solubility thermodynamic (physchem [2]): 1.5 µM (≈ 0.779 µg/mL)

SMILES: COc1ccc(Cc2nccc3cc(OC)c(OC)cc23)cc1OC [PAPAVERINE]
- logD (physchem [1]; pH 7.4): 2.81
- solubility thermodynamic (physchem [2]): 38 µM (≈ 12.9 µg/mL)

SMILES: COc1ccc(C(=O)C2CCN(C(=O)c3ccc(F)cc3)CC2)cc1
- logD (physchem [1]; pH 7.4, LogD7.4): 2.92
- solubility thermodynamic (physchem [2]): 204 µM (≈ 69.7 µg/mL)

SMILES: CSc1ccc(C(=O)C(C)(C)N2CCOCC2)cc1
- logD (physchem [1]; pH 7.4): 3.49
- solubility thermodynamic (physchem [2]): 52.5 µM (≈ 14.7 µg/mL)

SMILES: CCCCn1c(Cc2cc(OC)c(OC)c(OC)c2)nc2c(N)ncnc21
- logD (physchem [1]; pH 7.4, LogD7.4): 2.39
- solubility thermodynamic (physchem [2]): 85.1 µM (≈ 31.6 µg/mL)

SMILES: COc1cc2ncnc(Nc3cccc(Cl)c3F)c2cc1CN(C)[C@H](C)C(N)=O
- logD (physchem [1]; pH 7.4, LogD7.4): 3.44
- solubility thermodynamic (physchem [2]): 41.7 µM (≈ 17.4 µg/mL)

SMILES: CC(=O)N1CCN(CCOc2cc(OC(C)C)c3c(Nc4c(F)ccc5c4OCO5)ncnc3c2)CC1
- logD (physchem [1]; pH 7.4, LogD7.4): 3.06
- solubility thermodynamic (physchem [2]): 27.5 µM (≈ 14.1 µg/mL)

SMILES: Cc1ccc(CO)cc1N(C)c1ccnc(Nc2cc(CN3CCOCC3)cc(N3CCOCC3)c2)n1
- logD (physchem [1]; pH 7.4, LogD7.4): 3
- solubility thermodynamic (physchem [2]): 372 µM (≈ 187 µg/mL)

SMILES: COc1cc(C(=O)O)ccc1Cn1ccc2ccc(NC(=O)OC3CCCC3)cc21
- logD (physchem [1]; pH 7.4, LogD7.4): 2.1
- solubility thermodynamic (physchem [2]): 186 µM (≈ 76.1 µg/mL)

SMILES: Clc1ccc(-c2nnc3cccc(Cl)n23)c(Cl)c1
- logD (physchem [1]; pH 7.4, LogD7.4): 2.88
- solubility thermodynamic (physchem [2]): 52.5 µM (≈ 15.7 µg/mL)

SMILES: NC(=O)COc1ccc(OCCNCC(O)COc2ccccc2)cc1 (centres undefined)
- logD (physchem [1]; pH 7.4, LogD7.4): 0.63
- solubility thermodynamic (physchem [2]): 661 µM (≈ 238 µg/mL)

SMILES: CC1(COc2ccc3c(c2)ncn3-c2ccc3cccc(N4CCC(N)CC4)c3n2)COC1 [CRENOLANIB]
- logD (physchem [1]; pH 7.4, LogD7.4): 1.99
- solubility thermodynamic (physchem [2]): 5.1 µM (≈ 2.26 µg/mL)

SMILES: CC(=O)Nc1cc(CN2C(=O)N(c3ccc(SC(F)(F)F)cc3)C(=O)C2(C)C)ccn1
- logD (physchem [1]; pH 7.4, LogD7.4): 2.93
- solubility thermodynamic (physchem [2]): 13.2 µM (≈ 5.97 µg/mL)

SMILES: COc1cc2ncnc(Nc3cccc(Cl)c3F)c2cc1CN1CCC[C@H]1CC(N)=O
- logD (physchem [1]; pH 7.4, LogD7.4): 2.64
- solubility thermodynamic (physchem [2]): 234 µM (≈ 104 µg/mL)

SMILES: CS(=O)(=O)Cc1cc(N2CCOCC2)nc(-c2cccc3cc[nH]c23)n1
- logD (physchem [1]; pH 7.4, LogD7.4): 2.8
- solubility thermodynamic (physchem [2]): 1.1 µM (≈ 0.41 µg/mL)

SMILES: CCn1c2ccccc2c2cc(NC(=O)N3CCOCC3)ccc21
- logD (physchem [1]; pH 7.4, LogD7.4): 3.2
- solubility thermodynamic (physchem [2]): 2.9 µM (≈ 0.938 µg/mL)

SMILES: C=CCN(C(=O)NCc1ccc(OC)cc1)C1CCN(CCC(c2ccccc2)c2ccccc2)CC1
- logD (physchem [1]; pH 7.4, LogD7.4): 3.6
- solubility thermodynamic (physchem [2]): 53.7 µM (≈ 26.7 µg/mL)

SMILES: COc1ccc(NC(=O)c2nnc(Nc3ccccc3F)o2)cn1
- logD (physchem [1]; pH 7.4, LogD7.4): 3.2
- solubility thermodynamic (physchem [2]): 3.3 µM (≈ 1.09 µg/mL)

SMILES: CS(=O)(=O)c1cccc(Nc2nccc(Nc3cccc4c3OCO4)n2)c1
- logD (physchem [1]; pH 7.4, LogD7.4): 2.83
- solubility thermodynamic (physchem [2]): 5.9 µM (≈ 2.27 µg/mL)

SMILES: COc1ccc2c(c1)[nH]c1c(C)nccc12 [HARMINE]
- logD (physchem [1]; pH 7.4): 2.9
- solubility thermodynamic (physchem [2]): 55 µM (≈ 11.7 µg/mL)

SMILES: Cc1ccc(-c2nn(C(C)(C)C)c3ncnc(N)c23)cc1
- logD (physchem [1]; pH 7.4, LogD7.4): 4.1
- solubility thermodynamic (physchem [2]): 9.8 µM (≈ 2.76 µg/mL)

SMILES: Cc1cc(S(=O)(=O)Nc2nc(Nc3ccc(Cl)cc3)n[nH]2)c(S)cc1Cl
- logD (physchem [1]; pH 7.4, LogD7.4): 2.09
- solubility thermodynamic (physchem [2]): 87.1 µM (≈ 37.5 µg/mL)

SMILES: Cc1cnc(Nc2ccc(OCC(O)CN(C)C)cc2)nc1Nc1ccccc1 (centres undefined)
- logD (physchem [1]; pH 7.4, LogD7.4): 2
- solubility thermodynamic (physchem [2]): 724 µM (≈ 285 µg/mL)

SMILES: CS(=O)(=O)c1cccc(Nc2nccc(Nc3cccc4c3OCC4)n2)c1
- logD (physchem [1]; pH 7.4, LogD7.4): 3
- solubility thermodynamic (physchem [2]): 44.7 µM (≈ 17.1 µg/mL)

SMILES: CCCSc1nc(N2CCC[C@H](CC(=O)O)C2)ccc1C(=O)NC1CCCCC1
- logD (physchem [1]; pH 7.4, LogD7.4): 2.18
- solubility thermodynamic (physchem [2]): 174 µM (≈ 72.9 µg/mL)

SMILES: COc1cc(CCc2cc(Nc3ccnc(NCc4cc(C)no4)n3)n[nH]2)cc(OC)c1
- logD (physchem [1]; pH 7.4, LogD7.4): 3.1
- solubility thermodynamic (physchem [2]): 0.6 µM (≈ 0.261 µg/mL)

SMILES: CC(C)N1CCO[C@@H](CN2CCN(C(=O)Nc3ccc(Cl)c(Cl)c3)CC2)C1
- logD (physchem [1]; pH 7.4, LogD7.4): 2.77
- solubility thermodynamic (physchem [2]): 1120 µM (≈ 466 µg/mL)

SMILES: COc1cc2ncnc(NCc3ccccc3)c2cc1OC
- logD (physchem [1]; pH 7.4, LogD7.4): 3.29
- solubility thermodynamic (physchem [2]): 38.9 µM (≈ 11.5 µg/mL)

SMILES: COc1cc(Nc2cc(Oc3ccc(C)nc3)ccn2)cc(OC)c1OC
- logD (physchem [1]; pH 7.4, LogD7.4): 3.21
- solubility thermodynamic (physchem [2]): 31.6 µM (≈ 11.6 µg/mL)

Source: ChEMBL document CHEMBL3301361, “Experimental in vitro DMPK and physicochemical data on a set of publicly disclosed compounds”
